{
  "source": "patent US20250049800A1",
  "about": "“VCP/p97 INHIBITOR FOR THE TREATMENT OF CANCER” (CASI Pharmaceuticals, Inc., priority 2021, published 2025)",
  "key": {"[1]": {"experiment": "Phase I study: plasma pharmacokinetics of orally administered Compound 1", "assay_type": "in vivo, human", "conditions": "for AUC(0-t) / Cmax / Tmax / half-life / AUC(0-inf): human, plasma, oral", "excerpt": "The study was designed as a multicenter, open-label Phase 1 study of orally administered Compound 1 in participants with R/R AML or participants with R/R intermediate- to high-risk MDS. […] Additional cohorts for participants with R/R intermediate- to high-risk MDS following hypomethylating agents or other AML cohorts may be added at a later time.\nSimilar dosing may be used in the dose expansion part of the study. […] Additional intensive PK testing is collected for any participants undergoing intra-patient dose escalation.\nAt the conclusion of the 900 mg QD cohort, subjects were enrolled in cohorts for BID dosing, starting with the 300 mg BID dosing.\nSubjects were treated with Compound 1 QD as described in Example 2.\nSubjects were treated with Compound 1 QD or BID dosing as described in Example 2 and blood samples were taken from subjects and analyzed as described in Example 3. Tables 16 and 17 show pharmacokinetic analyses for QD dosing for 100 mg, 175 mg, 275 mg, 350 mg, 400 mg and 900 mg cohorts and BID dosing for 300 mg and 350 mg cohorts. Abbreviations in Table 16 and Table 17: AR=Day 4 AUC0-24/Day 1 AUC0-24, NR=not reported; NA=not available. […] FIG. 9 and FIG. 10 show AUC for day 1 and day 4 of dosing with doses between 350-900 mg QD compared with 350 mg BID."}, "[2]": {"test_system": "DU4475 (Breast)", "experiment": "Cell Titer-Glo viability: single agent IC50 and Compound 1 + PARP inhibitor matrix (Bliss)", "assay_type": "cell-based", "conditions": "Homo sapiens, DU-4475, 72 h, single agent, read-out: Absolute IC50", "method": "(§1) The PARP inhibitors used for the study were talazoparib, olaparib and niraparib. […] was used as a reference control. […] For each drug agent on its own, IC50 values in each cell line were determined. Interactions of the combinations of Compound 1 and each PARP inhibitor was assessed as follows: […] Cisplatin and culture media were used as positive and negative control, respectively. The combination activities were assessed using CrownSyn software to determine synergy scores by Bliss Independence and Loewe additivity methods. […] Synergy scores calculated by both Bliss independence model and Loewe additivity model (see Greco, […]., Poch, G., Suhnel, J., Kundi, M., & Bodeker, W. (1992). Consensus on concepts and terminology for combined-action assessment: the […] agreement. […] Without being bound by theory, the Bliss independence model is often applied to asses synergy for non-interacting drugs that elicit their responses independently, e.g., by targeting separate pathways, whereas the Loewe additivity model may be more compatible where both drugs have similar modes of action on the same targets or pathways."}, "[3]": {"test_system": "HCC1806 (Breast)", "experiment": "Cell Titer-Glo viability: single agent IC50 and Compound 1 + PARP inhibitor matrix (Bliss)", "assay_type": "cell-based", "conditions": "Homo sapiens, 72 h, single agent, read-out: Absolute IC50", "method": "as §1"}, "[4]": {"test_system": "K48-Ub (ubiquitin)", "experiment": "K48-Ub (ubiquitin) biomarker in patient blood samples", "assay_type": "in vivo, human", "conditions": "cohorts 4 and 5; two of 5 patients showed changes", "method": "Two biomarkers were assessed in patients from cohorts 4 and 5. K48-Ub (ubiquitin) and Activated Caspase 3 biomarkers were analyzed from 5 patient blood samples."}},
  "note": "Several values for one entry are separate records, joined by “and”; a condition that tells them apart may be missing. Identical values can stand only once.",
  "data": [
    {"smiles": "Cc1cc2c(C(N)=O)cccc2n1-c1nc2c(c(NCc3ccccc3)n1)CCCN2", "note": "[Compound 1, 1-(4-(benzylamino)-5,6,7,8-tetrahydropyrido[2,3-d]pyrimidin-2-yl)-2-methyl-1H-indole-4-carboxamide]", "values": [
      {"measurement": "AUC(0-t)", "setting": "[1]; 350 mg, 350 mg QD, Day 1, Mean", "value": "5200 ng·h/mL and 12.6 µM·h"},
      {"measurement": "Cmax", "setting": "[1]; 350 mg, 350 mg QD, Day 1, Mean", "value": "746 ng/mL and 1.81 µM"},
      {"measurement": "Tmax", "setting": "[1]; 350 mg, 350 mg QD, Day 1, Mean", "value": 3.2, "unit": "h"},
      {"measurement": "half-life", "setting": "[1]; 350 mg, 350 mg QD, Day 1, Mean", "value": 4.48, "unit": "h"},
      {"measurement": "AUC(0-inf)", "setting": "[1]; 350 mg, 350 mg QD, Day 4, Mean", "value": "8570 ng·h/mL and 20.8 µM·h"},
      {"measurement": "AUC(0-t)", "setting": "[1]; 350 mg, 350 mg QD, Day 4, Mean", "value": "8440 ng·h/mL and 20.4 µM·h"},
      {"measurement": "Cmax", "setting": "[1]; 350 mg, 350 mg QD, Day 4, Mean", "value": "834 ng/mL and 2.02 µM"},
      {"measurement": "Tmax", "setting": "[1]; 350 mg, 350 mg QD, Day 4, Mean", "value": 4, "unit": "h"},
      {"measurement": "half-life", "setting": "[1]; 350 mg, 350 mg QD, Day 4, Mean", "value": 7.55, "unit": "h"},
      {"measurement": "AUC(0-inf)", "setting": "[1]; 450 mg, 450 mg QD, Day 1, Mean", "value": "8860 ng·h/mL and 21.5 µM·h"},
      {"measurement": "AUC(0-t)", "setting": "[1]; 450 mg, 450 mg QD, Day 1, Mean", "value": "8340 ng·h/mL and 20.2 µM·h"},
      {"measurement": "Cmax", "setting": "[1]; 450 mg, 450 mg QD, Day 1, Mean", "value": "895 ng/mL and 2.17 µM"},
      {"measurement": "Tmax", "setting": "[1]; 450 mg, 450 mg QD, Day 1, Mean", "value": 3, "unit": "h"},
      {"measurement": "half-life", "setting": "[1]; 450 mg, 450 mg QD, Day 1, Mean", "value": 6.05, "unit": "h"},
      {"measurement": "AUC(0-inf)", "setting": "[1]; 450 mg, 450 mg QD, Day 4, Mean", "value": "15900 ng·h/mL and 38.4 µM·h"},
      {"measurement": "AUC(0-t)", "setting": "[1]; 450 mg, 450 mg QD, Day 4, Mean", "value": 14500, "unit": "ng·h/mL"},
      {"measurement": "Cmax", "setting": "[1]; 450 mg, 450 mg QD, Day 4, Mean", "value": "1350 ng/mL and 3.28 µM"},
      {"measurement": "Tmax", "setting": "[1]; 450 mg, 450 mg QD, Day 4, Mean", "value": 4, "unit": "h"},
      {"measurement": "half-life", "setting": "[1]; 450 mg, 450 mg QD, Day 4, Mean", "value": 9.62, "unit": "h"},
      {"measurement": "AUC(0-inf)", "setting": "[1]; 600 mg, 600 mg QD, Day 1, Mean", "value": "6500 ng·h/mL and 15.7 µM·h"},
      {"measurement": "AUC(0-t)", "setting": "[1]; 600 mg, 600 mg QD, Day 1, Mean", "value": "5710 ng·h/mL and 13.8 µM·h"},
      {"measurement": "Cmax", "setting": "[1]; 600 mg, 600 mg QD, Day 1, Mean", "value": "799 ng/mL and 1.93 µM"},
      {"measurement": "Tmax", "setting": "[1]; 600 mg, 600 mg QD, Day 1, Mean", "value": 3.6, "unit": "h"},
      {"measurement": "half-life", "setting": "[1]; 600 mg, 600 mg QD, Day 1, Mean", "value": 5.94, "unit": "h"},
      {"measurement": "AUC(0-inf)", "setting": "[1]; 600 mg, 600 mg QD, Day 4, Mean", "value": "18200 ng·h/mL and 44 µM·h"},
      {"measurement": "AUC(0-t)", "setting": "[1]; 600 mg, 600 mg QD, Day 4, Mean", "value": "17200 ng·h/mL and 41.7 µM·h"},
      {"measurement": "Cmax", "setting": "[1]; 600 mg, 600 mg QD, Day 4, Mean", "value": "1960 ng/mL and 4.75 µM"},
      {"measurement": "Tmax", "setting": "[1]; 600 mg, 600 mg QD, Day 4, Mean", "value": 3.4, "unit": "h"},
      {"measurement": "half-life", "setting": "[1]; 600 mg, 600 mg QD, Day 4, Mean", "value": 9.77, "unit": "h"},
      {"measurement": "AUC(0-inf)", "setting": "[1]; 750 mg, 750 mg QD, Day 1, Mean", "value": "6160 ng·h/mL and 14.9 µM·h"},
      {"measurement": "AUC(0-t)", "setting": "[1]; 750 mg, 750 mg QD, Day 1, Mean", "value": "5960 ng·h/mL and 14.4 µM·h"},
      {"measurement": "Cmax", "setting": "[1]; 750 mg, 750 mg QD, Day 1, Mean", "value": "796 ng/mL and 1.93 µM"},
      {"measurement": "Tmax", "setting": "[1]; 750 mg, 750 mg QD, Day 1, Mean", "value": 3.33, "unit": "h"},
      {"measurement": "half-life", "setting": "[1]; 750 mg, 750 mg QD, Day 1, Mean", "value": 4.49, "unit": "h"},
      {"measurement": "AUC(0-inf)", "setting": "[1]; 750 mg, 750 mg QD, Day 4, Mean", "value": "13200 ng·h/mL and 32.1 µM·h"},
      {"measurement": "AUC(0-t)", "setting": "[1]; 750 mg, 750 mg QD, Day 4, Mean", "value": "12900 ng·h/mL and 31.3 µM·h"},
      {"measurement": "Cmax", "setting": "[1]; 750 mg, 750 mg QD, Day 4, Mean", "value": "2260 ng/mL and 5.48 µM"},
      {"measurement": "Tmax", "setting": "[1]; 750 mg, 750 mg QD, Day 4, Mean", "value": 2.5, "unit": "h"},
      {"measurement": "half-life", "setting": "[1]; 750 mg, 750 mg QD, Day 4, Mean", "value": 6.67, "unit": "h"},
      {"measurement": "AUC(0-inf)", "setting": "[1]; 900 mg, 900 mg QD, Day 1, Mean", "value": "14000 ng·h/mL and 33.9 µM·h"},
      {"measurement": "AUC(0-t)", "setting": "[1]; 900 mg, 900 mg QD, Day 1, Mean", "value": "12300 ng·h/mL and 29.8 µM·h"},
      {"measurement": "Cmax", "setting": "[1]; 900 mg, 900 mg QD, Day 1, Mean", "value": "1550 ng/mL and 3.76 µM"},
      {"measurement": "Tmax", "setting": "[1]; 900 mg, 900 mg QD, Day 1, Mean", "value": 2.5, "unit": "h"},
      {"measurement": "half-life", "setting": "[1]; 900 mg, 900 mg QD, Day 1, Mean", "value": 5.71, "unit": "h"},
      {"measurement": "AUC(0-inf)", "setting": "[1]; 900 mg, 900 mg QD, Day 4, Mean", "value": "27000 ng·h/mL and 65.3 µM·h"},
      {"measurement": "AUC(0-t)", "setting": "[1]; 900 mg, 900 mg QD, Day 4, Mean", "value": "26700 ng·h/mL and 64.6 µM·h"},
      {"measurement": "Cmax", "setting": "[1]; 900 mg, 900 mg QD, Day 4, Mean", "value": "3220 ng/mL and 7.8 µM"},
      {"measurement": "Tmax", "setting": "[1]; 900 mg, 900 mg QD, Day 4, Mean", "value": 3.33, "unit": "h"},
      {"measurement": "half-life", "setting": "[1]; 900 mg, 900 mg QD, Day 4, Mean", "value": 6.47, "unit": "h"},
      {"measurement": "Cmax", "setting": "[1]; 175 mg QD, Day 1, Mean", "value": 1540, "unit": "nM"},
      {"measurement": "AUC(0-t)", "setting": "[1]; 450 mg QD, Day 4, Mean", "value": 35.2, "unit": "µM·h"},
      {"measurement": "exposures compared with CB-5083", "setting": "[1]; vs CB-5083 at greater than 200 mg, FIG. 4", "value": "greater than dosing CB-5083 at greater than 200 mg"},
      {"measurement": "IC50", "setting": "[2]", "value": 343, "unit": "nM"},
      {"measurement": "IC50", "setting": "[3]", "value": 437, "unit": "nM"},
      {"measurement": "K48-Ub (ubiquitin) biomarker, best fold change after treatment", "setting": "[4]", "value": "approximately 3.5 fold"}
    ]}
  ]
}
